# Patent US7858637B2, “Administration of TLR7 ligands and prodrugs thereof for treatment of infection by hepatitis C virus” (priority 2003, dated 2010)
# Where a name gives a salt, the structure may show the parent alone. Read-outs that look alike come from different tables or passages of the source.
# What was measured:
# [1] = test system: human peripheral blood mononuclear cells (PBMC); test: PBMC assay of interferon alpha release (masking); format: cell-based; details: Homo sapiens, PBMC, read-out: Amount of INFa relative to that induced by isatoribine at 100 μM
# Procedure: A typical experiment would use human peripheral blood mononuclear cells (PBMC) isolated from a healthy donor and placed in replicate cell culture wells; typically, 2×10^6 to 5×10^6 cells are placed in each well. The PBMC are incubated in the absence of test compounds at 37° C. in a humidified atmosphere containing 5% CO2 for 24 hours to allow stabilization to the culture conditions, and then 100 micromolar isatoribine, the TLR7 ligand and a corresponding TLR7 ligand prodrug are added to separate wells containing PBMC from the same donor; untreated controls are included. The concentrations of TLR7 ligand and TLR7 ligand prodrug may be varied to suit the particular experiment, and the PBMC cultures are then incubated at 37° C. in a humidified atmosphere containing 5% CO2 for a period of time ranging from two hours to 48 hours. Samples of cell culture supernate media are taken during the incubation. These are assayed for cytokine production by ELISA. Additionally the amount of TLR7 ligand and TLR7 ligand prodrug remaining at the end of the incubation may be assayed by LC-MS. Cytokine production is calculated relative to production in the isatoribine control, following subtraction of the cytokine production in untreated controls.
# Thus, if the TLR7 ligand generates more interferon alpha (a conveniently measured cytokine) than does the corresponding TLR7 ligand prodrug after a similar duration of exposure and concentration, the TLR7 ligand prodrug may be deemed a “masked” TLR7 ligand prodrug.
# [2] = test system: interferon alpha; test: Interferon alpha plasma concentrations in mice; format: in vivo, mouse
# Text: Not only can one measure the plasma concentrations of isatoribine arising from oral administration of the said prodrug(s) but also the extensive immunological research conducted in the mouse has provided reagents suitable for measuring the levels of interferon alpha, a cytokine of interest reflecting one of the desired biologic activities of isatoribine.
# [3] = Toxicology studies, GI tolerance in beagle dogs; format: in vivo, beagle dog; details: dogs, oral val-isatoribine
# Text: We compared in the dog the oral toxicology of 21 and 24, and the intravenous toxicology of 21. We observed that the oral toxicology of 24 was much more like intravenous 21 than it was like oral 21.
# [4] = molecular target: T1, human TLR7 (Homo sapiens, UniProt Q9NYK1); test: HEK293-hTLR7 NF-kB luciferase reporter (C23) assay; details: read-out: mean fold induction of luciferase activity compared to the no drug control
# T1 sequence (Q9NYK1 27-1049): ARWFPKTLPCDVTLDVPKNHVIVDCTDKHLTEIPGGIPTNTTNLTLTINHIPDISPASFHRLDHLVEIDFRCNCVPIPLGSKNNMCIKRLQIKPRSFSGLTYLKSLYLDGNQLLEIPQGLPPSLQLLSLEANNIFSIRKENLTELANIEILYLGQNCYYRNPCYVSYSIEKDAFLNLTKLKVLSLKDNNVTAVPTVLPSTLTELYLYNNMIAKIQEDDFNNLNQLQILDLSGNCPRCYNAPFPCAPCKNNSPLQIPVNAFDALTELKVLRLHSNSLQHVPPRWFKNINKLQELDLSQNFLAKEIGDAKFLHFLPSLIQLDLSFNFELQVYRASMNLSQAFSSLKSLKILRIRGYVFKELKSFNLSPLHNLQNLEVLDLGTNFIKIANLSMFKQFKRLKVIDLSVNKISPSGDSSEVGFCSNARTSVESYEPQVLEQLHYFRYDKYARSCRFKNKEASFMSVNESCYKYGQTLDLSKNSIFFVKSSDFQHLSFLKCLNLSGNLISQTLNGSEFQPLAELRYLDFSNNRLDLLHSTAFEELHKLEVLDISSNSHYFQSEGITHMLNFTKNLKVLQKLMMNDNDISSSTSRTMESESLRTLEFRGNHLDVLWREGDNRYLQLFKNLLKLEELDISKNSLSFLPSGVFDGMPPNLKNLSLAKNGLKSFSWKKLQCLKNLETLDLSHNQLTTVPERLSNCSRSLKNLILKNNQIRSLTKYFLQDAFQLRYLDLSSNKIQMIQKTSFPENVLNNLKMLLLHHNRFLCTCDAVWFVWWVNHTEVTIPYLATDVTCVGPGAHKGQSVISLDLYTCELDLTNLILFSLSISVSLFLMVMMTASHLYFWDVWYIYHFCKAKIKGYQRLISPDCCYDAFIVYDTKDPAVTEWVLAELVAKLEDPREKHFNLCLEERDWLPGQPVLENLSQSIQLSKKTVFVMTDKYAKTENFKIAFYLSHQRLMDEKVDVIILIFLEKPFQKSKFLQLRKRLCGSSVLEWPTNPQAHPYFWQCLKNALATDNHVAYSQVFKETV
# Procedure: A stable HEK293-hTLR7 cell line was obtained from Invivogen (San Diego, Calif.), transfected with pNiFty2-Luc, an NF-kB inducible luciferase reporter plasmid (Invivogen) and (dual) stable transfectants selected. The resultant dual (hTLR7/pNiFty2-Luc) cell lines were functionally tested by response to loxoribine and isatoribine as measured by fold luciferase induction relative to a no drug control. […] See, e.g., Hemmi H. et al., Nat.
# For a typical C23 assay, cells are seeded at 6×10^4 cells/well in 96 well plates and 4-24 hours later are treated with various concentrations of compound. After 2-48 hours exposure the cell monolayers are lyzed with passive lysis buffer (Promega) and the firefly luciferase assay carried out using the luciferase assay reagent (Promega) as specified by the manufacturer. Relative luciferase activities are expressed as folds of induction compared to the no drug control. A two-fold induction over background is considered a bona fide TLR7 agonist, dependent on this being a statistically significant increase.
# In Table 1, isatoribine, was added to C23 cells for forty-eight hours, and the cells were then harvested and assayed for luciferase activity. Each time-point was assayed in triplicate.
# Each time-point was assayed in triplicate.
# [5] = test system: HCV replicon; test: HCV replicon-based viral bioassay with supernatants of compound-treated PBMC; format: cell-based, hepatitis C virus
# Procedure: A quantitative assay was developed which is based on measuring the activity of the luciferase reporter gene that was integrated into an HCV replicon. By using this system, interferons from TLR7 agonist-treated PBMCs were measured and their inhibitory activity was assessed using the luciferase reporter replicon.
# Human PBMCs isolated from a healthy donor were placed in replicate cell culture wells (5×10^6 cells per well). The PBMCs are incubated in the absence of test compounds at 37° C. in a humidified atmosphere containing 5% CO2 for 24 hours to allow stabilization to the culture conditions, and then the TLR7 ligand or a drug free control is added to replicate wells containing PBMCs from the same donor. The concentrations of TLR7 ligand may be varied to suit the particular experiment, and the PBMC cultures are then incubated at 37° C. in a humidified atmosphere containing 5% CO2 for eight hours. Samples of cell culture supernatant are taken at the eight hour time point (or twenty four hour time point in case of Loxoribine and its prodrugs) from TLR7 ligand treated and control wells and are assayed for interferon-alpha production by ELISA. Supernatants from compound-treated cells and a no-drug control were diluted at 1:10, 1:100, and 1:1000 in RPMI media and applied to a 96-well plate of Huh7 hepatocyte cells containing the luciferase reporter replicon. Cells were incubated for 48 hours at 37° C. in a tissue culture incubator.
# After the incubation period, the 96-well plates are washed 2× with PBS and are lysed with passive lysis buffer (Promega). Plates are shaken at room temperature for 20 minutes and standard luciferase assay reagent (Promega) is added to each well by injection and the plate is read on an Lmax luminometer (Molecular Devices).
# A supernatant collected from PBMC cells non-exposed to the compound and diluted as specified in the first column was used as a control (“Blank supernatant”). The PBMC cells were isolated from a single blood donor as specified.
# [6] = test system: HCV; details: treatment of HCV, Pockros et al., Gastroenterology 2003; cited from earlier work
# [7] = isatoribine equivalent applied dose 8.1 mg/kg
# [8] = isatoribine equivalent applied dose 16 mg/kg
# [9] = isatoribine equivalent applied dose 32 mg/kg
# [10] = isatoribine equivalent applied dose 64 mg/kg
smiles,measurement,setting,value
CC(=O)OC[C@H]1O[C@@H](n2c(=O)sc3c(=O)[nH]c(N)nc32)[C@H](OC(C)=O)[C@@H]1OC(C)=O,melting point,,198 to 199 °C
Nc1ncc2sc(=O)n([C@@H]3O[C@H](CO)[C@@H](O)[C@H]3O)c2n1,melting point,,220 °C (dec.)
"CC(C)[C@H](N)C(=O)OC[C@H]1O[C@@H](n2c(=O)sc3c(=O)[nH]c(N)nc32)[C@H](O)[C@@H]1O (as salt: hydrochloride) [Compound 24, 5-Amino-3-(5′-O-L-valinyl-β-D-ribofuranosyl)thiazolo[4,5-d]pyrimidine-2,7-dione Dihydrochloride]",melting point,,166 to 168 °C (dec.)
"CC(C)[C@H](N)C(=O)OC[C@H]1O[C@@H](n2c(=O)sc3c(O)nc(N)nc32)[C@H](O)[C@@H]1O [Compound 24, 5-Amino-3-(5′-O-L-valinyl-β-D-ribofuranosyl)thiazolo[4,5-d]pyrimidine-2,7-dione Dihydrochloride]",Emax at 100 µM,"[1]; Table 9, 100 μM, 8 hours exposure, same blood donor",1%
same,increase of the magnitude of both the average and peak interferon response over isatoribine,"[2]; mice, oral dosing",100%
same,levels of isatoribine and interferon relative to those after intravenous isatoribine,"[2]; mice, oral, 50 mg/kg isatoribine molar equivalent vs intravenous isatoribine 25 mg/kg, FIG. 1",approximately 50%
same,mice with detectable interferon in their plasma,"[2]; oral dosing, data of Tables 15, 16 and 17",10 of the 30
same,Emesis or loose stool,[3]; [7],Neg.
same,GI lesions or irritation,[3]; [7],Neg.
same,Emesis or loose stool,[3]; [8],Neg.
same,GI lesions or irritation,[3]; [8],Neg.
same,Emesis or loose stool,[3]; [9],Neg.
same,GI lesions or irritation,[3]; [9],Neg.
same,Emesis or loose stool,[3]; [10],Neg.
same,GI lesions or irritation,[3]; [10],Neg.
same,GI lesions or irritation,[3]; isatoribine equivalent applied dose 130 mg/kg,Neg.
same,GI lesions or irritation,[3]; isatoribine equivalent applied dose 260 mg/kg,Neg.
same,GI lesions or irritation,[3]; isatoribine equivalent applied dose 390 mg/kg,Neg.
"COCCOc1nc(N)c2nc(O)n(Cc3ccccc3)c2n1 [Compound 29, 6-Amino-9-benzyl-2-(2-methoxy-ethoxy)-9H-purin-8-ol]",fold induction at 1 µM,[4],20.8
same,fold induction at 3.2 µM,[4],37.3
same,fold induction at 10 µM,[4],47.5
same,fold induction at 32 µM,[4],48.4
same,HCV replicon inhibition,"[5]; Table 8 No. 1, PBMC exposed 8 hours to 0.1 μM, a TFA salt, donor FL76418, supernatant dilution 1:10",100%
same,HCV replicon inhibition,"[5]; Table 8 No. 1, PBMC exposed 8 hours to 0.1 μM, a TFA salt, donor FL76418, supernatant dilution 1:100",73%
same,HCV replicon inhibition,"[5]; Table 8 No. 1, PBMC exposed 8 hours to 0.1 μM, a TFA salt, donor FL76418, supernatant dilution 1:1000",0%
same,HCV replicon inhibition,"[5]; Table 8 No. 2, PBMC exposed 8 hours to 0.1 μM, a TFA salt, donor FL76418, supernatant dilution 1:10",100%
same,HCV replicon inhibition,"[5]; Table 8 No. 2, PBMC exposed 8 hours to 0.1 μM, a TFA salt, donor FL76418, supernatant dilution 1:100",64%
same,HCV replicon inhibition,"[5]; Table 8 No. 2, PBMC exposed 8 hours to 0.1 μM, a TFA salt, donor FL76418, supernatant dilution 1:1000",9%
same,Emax at 0.1 µM,"[1]; Table 14, 0.1 μM, 24 hours exposure",128%
"CCOCc1nc2c(N)nc3ccccc3c2n1CC(C)(C)O [Compound 38, 1-(4-amino-2-ethoxymethyl-imidazo[4,5-c]quinolin-1-yl)-2-methyl-propan-2-ol]",HCV replicon inhibition,"[5]; Table 6 No. 1, PBMC exposed 8 hours to 10 μM, donor FL75287, supernatant dilution 1:10",100%
same,HCV replicon inhibition,"[5]; Table 6 No. 1, PBMC exposed 8 hours to 10 μM, donor FL75287, supernatant dilution 1:100",98%
same,HCV replicon inhibition,"[5]; Table 6 No. 1, PBMC exposed 8 hours to 10 μM, donor FL75287, supernatant dilution 1:1000",21%
same,HCV replicon inhibition,"[5]; Table 6 No. 2, PBMC exposed 8 hours to 10 μM, donor FL75287, supernatant dilution 1:10",100%
same,HCV replicon inhibition,"[5]; Table 6 No. 2, PBMC exposed 8 hours to 10 μM, donor FL75287, supernatant dilution 1:100",88%
same,HCV replicon inhibition,"[5]; Table 6 No. 2, PBMC exposed 8 hours to 10 μM, donor FL75287, supernatant dilution 1:1000",6%
same,Emax at 100 µM,[1]; 24 h,9%
same,anti-HCV effect at tolerated oral doses,[6],failed to show anti-HCV effect
"CC(=O)O[C@@H]1[C@H](OC(C)=O)[C@@H](CO)O[C@H]1n1c(=O)sc2cnc(N)nc21 [Compound 93, 5-Amino-3-(2′,3′-di-O-acetyl-β-D-ribofuranosyl)-3H-thiazolo[4,5-d]pyrimidin-2-one]",Emax at 100 µM,"[1]; Table 9, 100 μM, 24 hours exposure, same blood donor",0%
same,melting point,,109 to 111 °C
